From PubChem BioAssay AID330 (DTP/NCI, 2004)
“And” between values parts separate entries of the source, which are not always exact repeats. Equal entries are not always repeated. Inconclusive results and toxic doses are left out. Bridge positions count the residues as written; N and C are the ends. Square brackets hold non-standard residues; d marks the D form. Peptide text beside a SMILES is read from it. NMeV = CN[CH](C(=O)O)C(C)C; Sar = CNCC(=O)O

Tested on: P388 leukemia ip, CD2F1 mice, survival T/C
Experiment: NCI In Vivo Anticancer Drug Screen. Data for tumor model P388 Leukemia (intraperitoneal) in CD2F1 (CDF1) mice
Conditions: endpoint: median survival time, higher = longer survival
Method in brief: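 Mice carrying the transplanted tumor received test compound or vehicle. Survival was recorded in each group, and the value is the treated-group measurement divided by that of the vehicle-treated control group.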

[1] = dose: 50.0 mg/kg/injection, schedule: Q01DX009 (ip), vehicle: saline
[2] = dose: 100.0 mg/kg/injection, schedule: Q01DX009 (ip), vehicle: saline
[3] = dose: 200.0 mg/kg/injection, schedule: Q01DX009 (ip), vehicle: saline
[4] = dose: 50.0 mg/kg/injection, schedule: Q01DX009 (ip), vehicle: saline with Tween-80
[5] = dose: 100.0 mg/kg/injection, schedule: Q01DX009 (ip), vehicle: saline with Tween-80
[6] = dose: 50.0 mg/kg/injection, schedule: Q01DX005 (ip), vehicle: saline with Tween-80
[7] = dose: 100.0 mg/kg/injection, schedule: Q01DX005 (ip), vehicle: saline with Tween-80
[8] = dose: 200.0 mg/kg/injection, schedule: Q01DX005 (ip), vehicle: saline with Tween-80
[9] = dose: 60.0 mg/kg/injection, schedule: Q01DX005 (ip), vehicle: saline with Tween-80
[10] = dose: 120.0 mg/kg/injection, schedule: Q01DX005 (ip), vehicle: saline with Tween-80
[11] = dose: 240.0 mg/kg/injection, schedule: Q01DX005 (ip), vehicle: saline with Tween-80

`CC(C)C1NC(=O)C(N)C(C)OC(=O)C(C(C)C)N(C)C(=O)CN(C)C(=O)C2CCCN2C1=O` (stereo not drawn) (tested in a mixture with another compound) (H-TVP[Sar][NMeV]; ester 1-C; configuration not given here) was tested, and the T/C (dose: 15.0 micrograms/kg/injection, schedule: Q01DX009 (ip), vehicle: water) was 163 % of control, the T/C (dose: 31.0 micrograms/kg/injection, schedule: Q01DX009 (ip), vehicle: water) was 159 % of control and the T/C (dose: 62.0 micrograms/kg/injection, schedule: Q01DX009 (ip), vehicle: water) was 164 % of control. The T/C (dose: 110.0 micrograms/kg/injection, schedule: Q01DX009 (ip), vehicle: other) was 200 % of control, the T/C (dose: 125.0 micrograms/kg/injection, schedule: Q01DX009 (ip), vehicle: water) was 179 % of control and the T/C (dose: 165.0 micrograms/kg/injection, schedule: Q01DX009 (ip), vehicle: other) was 254 % of control. The T/C (dose: 250.0 micrograms/kg/injection, schedule: Q01DX009 (ip), vehicle: other) was 180 % of control and the T/C (dose: 250.0 micrograms/kg/injection, schedule: Q01DX009 (ip), vehicle: water) was 225 % of control.

In the case of `CN1CCOC(N2CCOCC2)C(C)(C)C1` (stereo not drawn), the T/C (dose: 50.0 mg/kg/injection, schedule: Q01DX005 (ip), vehicle: saline) is reported as 92 % of control, the T/C (dose: 100.0 mg/kg/injection, schedule: Q01DX005 (ip), vehicle: saline) is reported as 88 % of control and the T/C (dose: 200.0 mg/kg/injection, schedule: Q01DX005 (ip), vehicle: saline) is reported as 100 % of control.

With `CCC(c1ccc(OC)cc1)C(NCC(=O)NNC(=O)CNC(c1ccc(OC)cc1)C(CC)c1ccc(OC)cc1)c1ccc(OC)cc1` (stereo not drawn) the T/C (dose: 200.0 mg/kg/injection, schedule: Q04DX002 (ip), vehicle: saline with Tween-80) was 86 % of control and the T/C (dose: 400.0 mg/kg/injection, schedule: Q04DX002 (ip), vehicle: saline with Tween-80) was 92 % of control.

With `CS[P+]1(C)C=C(N2CCOCC2)CC1` (stereo not drawn) the T/C [1] was 101 % of control, the T/C [2] was 96 % of control and the T/C [3] was 96 % of control.

For `CC1=C(C/C=C(\C)CCCC(C)CCCC(C)CCCC(C)C)C(=O)c2ccccc2C1=O` (stereo not drawn), the T/C (dose: 12.5 mg/kg/injection, schedule: Q01DX009 (ip), vehicle: olive oil, sesame oil, peanut oil) was 102 % of control, the T/C (dose: 25.0 mg/kg/injection, schedule: Q01DX009 (ip), vehicle: olive oil, sesame oil, peanut oil) was 105 % of control and the T/C (dose: 50.0 mg/kg/injection, schedule: Q01DX001 (ip), vehicle: olive oil, sesame oil, peanut oil) was 92 % of control. The T/C (dose: 50.0 mg/kg/injection, schedule: Q01DX009 (ip), vehicle: olive oil, sesame oil, peanut oil) was 101 % of control, the T/C (dose: 100.0 mg/kg/injection, schedule: Q01DX001 (ip), vehicle: olive oil, sesame oil, peanut oil) was 99 % of control and the T/C (dose: 100.0 mg/kg/injection, schedule: Q01DX009 (ip), vehicle: olive oil, sesame oil, peanut oil) was 100 % of control. For the same molecule, the T/C (dose: 200.0 mg/kg/injection, schedule: Q01DX001 (ip), vehicle: olive oil, sesame oil, peanut oil) was 99 % of control and the T/C (dose: 200.0 mg/kg/injection, schedule: Q01DX009 (ip), vehicle: olive oil, sesame oil, peanut oil) was 101 % of control.

With `CCC(C)C[c-]1[c-][c-][c-][c-]1.CCC(C)C[c-]1[c-][c-][c-][c-]1.[Cl][Zr][Cl]` (stereo not drawn) the T/C [4] was 90 % of control and the T/C [5] was 88 % of control.

With `CCN(CC)CCNc1cc(C)nc2c1ccc1c2ccc2c(NCCN(CC)CC)cc(C)nc21` the T/C (dose: 12.5 mg/kg/injection, schedule: Q01DX009 (ip), vehicle: water) was 104 % of control, the T/C (dose: 25.0 mg/kg/injection, schedule: Q01DX009 (ip), vehicle: water) was 113 % of control and the T/C (dose: 50.0 mg/kg/injection, schedule: Q01DX009 (ip), vehicle: water) was 97 % of control.

`CC(C)CN1CCOCC1` was tested, and the T/C (dose: 25.0 mg/kg/injection, schedule: Q01DX009 (ip), vehicle: saline) was 100 % of control, the T/C [1] was 95 % of control and the T/C [2] was 104 % of control.

In the case of `Nc1nc(N)c2cc(C=O)ccc2n1`, the T/C (dose: 0.39 mg/kg/injection, schedule: Q01DX009 (ip), vehicle: distilled water + Tween-80) is reported as 100 % of control, the T/C (dose: 0.78 mg/kg/injection, schedule: Q01DX009 (ip), vehicle: distilled water + Tween-80) is reported as 101 % of control and the T/C (dose: 1.56 mg/kg/injection, schedule: Q01DX009 (ip), vehicle: distilled water + Tween-80) is reported as 110 % of control. The T/C (dose: 3.13 mg/kg/injection, schedule: Q01DX009 (ip), vehicle: distilled water + Tween-80) was 100 % of control and the T/C (dose: 6.25 mg/kg/injection, schedule: Q01DX009 (ip), vehicle: distilled water + Tween-80) was 109 % of control.

`CCCCCC(CN(C)C)C(=O)/C=C/c1ccc2c(c1)OCO2` (stereo not drawn) was tested, and the T/C [4] was 123 % of control and the T/C [5] was 109 % of control.

In the case of `CN1CCc2sccc2C(c2ccccc2)O1` (stereo not drawn), the T/C (dose: 50.0 mg/kg/injection, schedule: Q01DX005 (ip), vehicle: Klucel (hydroxypropylcellulose) (HPC)) is reported as 112 % of control, the T/C (dose: 100.0 mg/kg/injection, schedule: Q01DX005 (ip), vehicle: Klucel (hydroxypropylcellulose) (HPC)) is reported as 104 % of control and the T/C (dose: 200.0 mg/kg/injection, schedule: Q01DX005 (ip), vehicle: Klucel (hydroxypropylcellulose) (HPC)) is reported as 113 % of control.

In the case of `CC(=O)Oc1ccccc1C(=O)OC1CC2CCC1(C)C2(C)C` (stereo not drawn), the T/C [6] is reported as 92 % of control, the T/C [7] is reported as 97 % of control and the T/C [8] is reported as 98 % of control.

With `CCCCc1c(OCC)cc2n(CC)c3ccccc3n2c1=O` the T/C [9] was 107 % of control, the T/C [10] was 94 % of control and the T/C [11] was 94 % of control.

With `COc1ccc(C2COc3cc(OC(C)=O)c(OC(C)=O)cc3C2)cc1` (stereo not drawn) the T/C [9] was 103 % of control, the T/C [10] was 103 % of control and the T/C [11] was 103 % of control.

`O=[N+]([O-])c1ccc2nc(Cl)sc2c1` was tested, and the T/C (dose: 25.0 mg/kg/injection, schedule: Q01DX009 (ip), vehicle: saline with Tween-80) was 95 % of control, the T/C [4] was 90 % of control and the T/C [5] was 109 % of control.

In the case of `O=C(N/N=C/c1cccc(O)c1O)c1ccccc1`, the T/C [6] is reported as 104 % of control, the T/C [7] is reported as 109 % of control and the T/C [8] is reported as 119 % of control.

`CCOC(=O)c1ccc(N=Cc2cccs2)cc1` was tested, and the T/C [1] was 88 % of control, the T/C [2] was 92 % of control and the T/C [3] was 102 % of control.

For `COc1cc2c(O)c3c(c(-c4ccc5c(c4)OCO5)c2cc1OC)C(=O)OC3`, the T/C (dose: 25.0 mg/kg/injection, schedule: Q01DX009 (ip), vehicle: Klucel (hydroxypropylcellulose) (HPC)) was 91 % of control, the T/C (dose: 50.0 mg/kg/injection, schedule: Q01DX009 (ip), vehicle: Klucel (hydroxypropylcellulose) (HPC)) was 100 % of control and the T/C (dose: 100.0 mg/kg/injection, schedule: Q01DX009 (ip), vehicle: Klucel (hydroxypropylcellulose) (HPC)) was 100 % of control. For the same molecule, the T/C (dose: 200.0 mg/kg/injection, schedule: Q01DX009 (ip), vehicle: Klucel (hydroxypropylcellulose) (HPC)) was 117 % of control.

For `COc1nc(NC2OC(CO)C(O)C2O)cc(=O)n1C` (stereo not drawn), the T/C [9] was 93 % of control and the T/C [10] was 94 % of control.

For `O=c1cc[nH]c(=O)[nH]1`, the T/C (dose: 32.0 mg/kg/injection, schedule: Q01DX009 (ip), vehicle: Klucel (hydroxypropylcellulose) (HPC)) was 99 % of control and 106 % of control, the T/C (dose: 32.0 mg/kg/injection, schedule: Q01DX009 (ip), vehicle: saline with Tween-80) was 114 % of control and the T/C (dose: 64.0 mg/kg/injection, schedule: Q01DX009 (ip), vehicle: Klucel (hydroxypropylcellulose) (HPC)) was 98 % of control and 100 % of control. For the same molecule, the T/C (dose: 64.0 mg/kg/injection, schedule: Q01DX009 (ip), vehicle: saline with Tween-80) was 100 % of control, the T/C [2] was 98 % of control and the T/C (dose: 128.0 mg/kg/injection, schedule: Q01DX009 (ip), vehicle: Klucel (hydroxypropylcellulose) (HPC)) was 99 % of control and 102 % of control. For the same molecule, the T/C (dose: 128.0 mg/kg/injection, schedule: Q01DX009 (ip), vehicle: saline with Tween-80) was 95 % of control, the T/C [3] was 100 % of control and the T/C (dose: 256.0 mg/kg/injection, schedule: Q01DX009 (ip), vehicle: Klucel (hydroxypropylcellulose) (HPC)) was 100 % of control and 109 % of control. The T/C (dose: 256.0 mg/kg/injection, schedule: Q01DX009 (ip), vehicle: saline with Tween-80) was 100 % of control, the T/C (dose: 400.0 mg/kg/injection, schedule: Q01DX009 (ip), vehicle: saline) was 102 % of control and the T/C (dose: 512.0 mg/kg/injection, schedule: Q01DX009 (ip), vehicle: Klucel (hydroxypropylcellulose) (HPC)) was 108 % of control and 109 % of control. For the same molecule, the T/C (dose: 512.0 mg/kg/injection, schedule: Q01DX009 (ip), vehicle: saline with Tween-80) was 97 % of control.

With `COc1ccc(C2(c3ccc(OC)cc3)c3ccccc3C(=O)c3ccc(OC)cc32)cc1` the T/C [6] was 98 % of control, the T/C [7] was 100 % of control and the T/C [8] was 96 % of control.

`Cc1ccc2c(NCCCCCCCCNc3c4ccccc4nc4c(C)c(C)ccc34)c3ccccc3nc2c1C` was tested, and the T/C (dose: 10.0 mg/kg/injection, schedule: Q01DX009 (ip), vehicle: other) was 156 % of control.
